# Measurements: US20230167073A1 (Teijin Pharma Limited, priority 2020, published 2023)
# Biological target: T1, Human TRPC6 (Homo sapiens, UniProt Q9Y210)
# T1 construct: expressed in transfected cells
# T1 sequence (Q9Y210 1-931): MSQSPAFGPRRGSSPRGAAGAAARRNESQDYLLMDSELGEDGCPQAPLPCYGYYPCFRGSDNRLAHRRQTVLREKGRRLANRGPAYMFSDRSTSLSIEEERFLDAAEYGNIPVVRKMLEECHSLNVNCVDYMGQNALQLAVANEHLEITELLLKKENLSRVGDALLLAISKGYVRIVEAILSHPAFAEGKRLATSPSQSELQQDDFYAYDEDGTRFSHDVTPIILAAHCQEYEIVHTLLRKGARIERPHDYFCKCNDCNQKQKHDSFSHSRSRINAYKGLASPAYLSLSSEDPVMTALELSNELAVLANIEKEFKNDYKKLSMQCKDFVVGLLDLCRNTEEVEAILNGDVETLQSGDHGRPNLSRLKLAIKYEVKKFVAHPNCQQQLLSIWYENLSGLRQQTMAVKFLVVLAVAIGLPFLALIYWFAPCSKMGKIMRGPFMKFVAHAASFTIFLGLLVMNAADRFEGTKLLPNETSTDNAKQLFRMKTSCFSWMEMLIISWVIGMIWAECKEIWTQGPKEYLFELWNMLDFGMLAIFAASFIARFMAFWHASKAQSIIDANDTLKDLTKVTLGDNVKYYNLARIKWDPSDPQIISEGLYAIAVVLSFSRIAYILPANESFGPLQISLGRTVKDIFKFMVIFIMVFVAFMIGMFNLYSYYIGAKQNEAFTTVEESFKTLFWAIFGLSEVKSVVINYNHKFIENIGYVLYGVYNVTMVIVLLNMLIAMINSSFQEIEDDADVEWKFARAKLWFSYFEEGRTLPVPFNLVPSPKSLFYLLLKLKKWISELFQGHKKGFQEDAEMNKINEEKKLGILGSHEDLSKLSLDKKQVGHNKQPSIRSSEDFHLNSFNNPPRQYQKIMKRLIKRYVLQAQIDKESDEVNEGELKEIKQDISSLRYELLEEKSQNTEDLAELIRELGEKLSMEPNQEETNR
# Assay: Evaluation of TRPC6 channel inhibitory activity (1), FLIPR Calcium 5 Assay Kit, OAG stimulation (Compound Nos. 1-1293)
# Type: cell-based
# Settings: Human TRPC6 stably-expressing cells, OAG 30 μM, FLIPR Calcium 5 Assay Kit; read-out: Inhibitory activity (pIC50 class) (converted)
# How it was run: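 TRPC6 (human) stable cells, 24 h culture; Ca5 no-wash dye + probenecid 30 min; cpd 20 min; OAG 30 μM final; ΔF (pre-cpd min to post-OAG max); 0%/100% = no cpd / no cpd + no OAG; 4PL → pIC50, binned +/++/+++.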
row,IC50,Structure (SMILES)
1,< 10 nM,"Cc1ccc(-c2cn(Cc3cc(C#N)ccc3-c3ccc(CCN)cn3)c(C)n2)cc1 [compound 1153, 4-[5-(2-aminoethyl)pyridin-2-yl]-3-[[2-methyl-4-(4-methylphenyl)imidazol-1-yl]methyl]benzonitrile]"
2,< 10 nM,"Cn1nc(N2CCCCC2)cc1C(=O)c1cc(C#N)ccc1-c1ncc(CN)cn1 [compound 1063, 4-[5-(aminomethyl)pyrimidin-2-yl]-3-(2-methyl-5-piperidin-1-ylpyrazole-3-carbonyl)benzonitrile]"
3,> 1000 nM,"COCCN(C)c1cc(Oc2cc(C#N)ccc2-c2ncc(CN)cn2)nc(C)n1 [compound 797, 4-[5-(aminomethyl)pyrimidin-2-yl]-3-[6-[2-methoxyethyl(methyl)amino]-2-methylpyrimidin-4-yl]oxybenzonitrile]"
4,< 10 nM,"Cn1nc(N2CCCC2)cc1Oc1cc(F)ccc1-c1ncc(CCN)cn1 [compound 979, 2-[2-[4-fluoro-2-(2-methyl-5-pyrrolidin-1-ylpyrazol-3-yl)oxyphenyl]pyrimidin-5-yl]ethanamine]"
5,> 1000 nM,"Cc1nc(Sc2cc(C#N)ccc2-c2ncc(CN)cn2)cc(N(C)C)n1 [compound 1263, 4-[5-(aminomethyl)pyrimidin-2-yl]-3-[6-(dimethylamino)-2-methylpyrimidin-4-yl]sulfanylbenzonitrile]"
6,< 10 nM,"Cn1nc(N2CCCC2)cc1C(=O)c1cc(C#N)ccc1-c1ncc(CCN)cn1 [compound 1071, 4-[5-(2-aminoethyl)pyrimidin-2-yl]-3-(2-methyl-5-pyrrolidin-1-ylpyrazole-3-carbonyl)benzonitrile]"
7,> 1000 nM,"Cc1nn(CC(F)F)c(C)c1Oc1cc(C#N)ccc1-c1ncc(CCN)cn1 [compound 940, 4-[5-(2-aminoethyl)pyrimidin-2-yl]-3-[1-(2,2-difluoroethyl)-3,5-dimethylpyrazol-4-yl]oxybenzonitrile]"
8,10 to 1000 nM,"Cn1ccnc1-c1cc(Oc2cc(C#N)ccc2-c2ncc(CN)cn2)n(C)n1 [compound 936, 4-[5-(aminomethyl)pyrimidin-2-yl]-3-[2-methyl-5-(1-methylimidazol-2-yl)pyrazol-3-yl]oxybenzonitrile]"
9,< 10 nM,"Cc1nc(N2CCOCC2)sc1C(=O)c1cc(C#N)ccc1-c1ncc(CCN)cn1 [compound 1065, 4-[5-(2-aminoethyl)pyrimidin-2-yl]-3-(4-methyl-2-morpholin-4-yl-1,3-thiazole-5-carbonyl)benzonitrile]"
10,< 10 nM,"Cc1nc(Oc2cc(C#N)ccc2-c2ncc(CCN)cn2)cc(N2CCC[C@H]2C)n1 [compound 859, 4-[5-(2-aminoethyl)pyrimidin-2-yl]-3-[2-methyl-6-[(2R)-2-methylpyrrolidin-1-yl]pyrimidin-4-yl]oxybenzonitrile]"
11,10 to 1000 nM,"Cc1nc(OCC2CC2(F)F)cc(Oc2cc(C#N)ccc2-c2ncc(CCN)cn2)n1 (stereo not shown) [compound 883, 4-[5-(2-aminoethyl)pyrimidin-2-yl]-3-[6-[(2,2-difluorocyclopropyl)methoxy]-2-methylpyrimidin-4-yl]oxybenzonitrile]"
12,> 1000 nM,"N#Cc1ccc(-c2ccc(CCN)cn2)c(Cn2cnc(-c3ccccn3)c2)c1 [compound 1160, 4-[5-(2-aminoethyl)pyridin-2-yl]-3-[(4-pyridin-2-ylimidazol-1-yl)methyl]benzonitrile]"
13,> 1000 nM,"CC(C)c1nc(Oc2cc(C#N)ccc2-c2ncc(CCN)cn2)n(C)n1 [compound 813, 4-[5-(2-aminoethyl)pyrimidin-2-yl]-3-[(2-methyl-5-propan-2-yl-1,2,4-triazol-3-yl)oxy]benzonitrile]"

# The remaining lines, values behind:
row,Structure (SMILES),IC50
1,"Cc1cc(Oc2cc(C#N)ccc2-c2ncc([C@H](O)CN)cn2)cc(N2C[C@@H](C)O[C@@H](C)C2)n1 [compound 506, 4-[5-[(1S)-2-amino-1-hydroxyethyl]pyrimidin-2-yl]-3-[2-[(2S,6R)-2,6-dimethylmorpholin-4-yl]-6-methylpyridin-4-yl]oxybenzonitrile]",< 10 nM
2,"Cc1cc(Oc2cc(C#N)ccc2-c2ccc(CN)cn2)cc(NC2CCOCC2)n1 [compound 647, 4-[5-(aminomethyl)pyridin-2-yl]-3-[2-methyl-6-(oxan-4-ylamino)pyridin-4-yl]oxybenzonitrile]",> 1000 nM
3,"Cc1cc(Oc2cc(C#N)ccc2-c2ccc(C(O)CN)cc2)cc(N2CCOCC2)n1 (stereo not shown) [Compound 197, 4-[4-(2-amino-1-hydroxyethyl)phenyl]-3-(2-methyl-6-morpholin-4-ylpyridin-4-yl)oxybenzonitrile]",< 10 nM
4,"Cc1nc(Oc2cc(C#N)ccc2-n2cc([C@H](O)CN)cn2)cc(-c2ccccc2F)n1 [compound 342, 4-[4-[(1S)-2-amino-1-hydroxyethyl]pyrazol-1-yl]-3-[6-(2-fluorophenyl)-2-methylpyrimidin-4-yl]oxybenzonitrile]",10 to 1000 nM
5,"Cn1nc(-c2ccccn2)cc1Oc1cc(C#N)ccc1-c1ncc(CN)cn1 [compound 394, 4-[5-(aminomethyl)pyrimidin-2-yl]-3-(2-methyl-5-pyridin-2-ylpyrazol-3-yl)oxybenzonitrile]",< 10 nM
6,"Cc1cc(Oc2cc(C#N)ccc2-c2ncc(CCN)cn2)cc(N2CCCC2)n1 [Compound 262, 4-[5-(2-aminoethyl)pyrimidin-2-yl]-3-(2-methyl-6-pyrrolidin-1-ylpyridin-4-yl)oxybenzonitrile]",< 10 nM
7,"Cn1nc(-c2ccccc2)cc1Oc1cc(C#N)ccc1-c1ccc(CCN)cn1 [Compound 175, 4-[5-(2-aminoethyl)pyridin-2-yl]-3-(2-methyl-5-phenylpyrazol-3-yl)oxybenzonitrile]",< 10 nM
8,"Cc1nc(Oc2cc(C#N)ccc2-c2ccc(CCN)cc2)cc(N2CCC(F)(F)CC2)n1 [Compound 18, 4-[4-(2-aminoethyl)phenyl]-3-[6-(4,4-difluoropiperidin-1-yl)-2-methylpyrimidin-4-yl]oxybenzonitrile]",10 to 1000 nM
9,"COCCOc1cc(Oc2cc(C#N)ccc2-c2ncc(CCN)cn2)cc(C)n1 [compound 492, 4-[5-(2-aminoethyl)pyrimidin-2-yl]-3-[2-(2-methoxyethoxy)-6-methylpyridin-4-yl]oxybenzonitrile]",10 to 1000 nM
10,"Cc1nc(Oc2cc(C#N)ccc2-c2ccc(C(O)CN(C)C)cc2)cc(-c2ccccc2)n1 (stereo not shown) [Compound 96, 4-[4-[2-(dimethylamino)-1-hydroxyethyl]phenyl]-3-(2-methyl-6-phenylpyrimidin-4-yl)oxybenzonitrile]",> 1000 nM
11,"Cn1nc(-c2ccccc2)cc1Oc1cc(C#N)ccc1-c1ccc(CCCN)cc1 [compound 579, 4-[4-(3-aminopropyl)phenyl]-3-(2-methyl-5-phenylpyrazol-3-yl)oxybenzonitrile]",10 to 1000 nM
12,"Cn1nc(-c2ccccn2)cc1Oc1cc(C#N)ccc1-c1nccc(CN)n1 [compound 682, 4-[4-(aminomethyl)pyrimidin-2-yl]-3-(2-methyl-5-pyridin-2-ylpyrazol-3-yl)oxybenzonitrile]",10 to 1000 nM
13,"N#Cc1ccc(-c2ccc(CCN)nc2)c(Oc2cc(N3CCOCC3)nc(C(F)(F)F)n2)c1 [Compound 147, 4-[6-(2-aminoethyl)pyridin-3-yl]-3-[6-morpholin-4-yl-2-(trifluoromethyl)pyrimidin-4-yl]oxybenzonitrile]",10 to 1000 nM
14,"Cc1nc(Oc2cc(C#N)ccc2-n2cc([C@H](O)CN)cn2)cc(-c2ccccc2C)n1 [compound 354, 4-[4-[(1S)-2-amino-1-hydroxyethyl]pyrazol-1-yl]-3-[2-methyl-6-(2-methylphenyl)pyrimidin-4-yl]oxybenzonitrile]",10 to 1000 nM
15,"Cc1cc(Oc2cc(C#N)ccc2-c2ccc(CCN)cn2)cc(N2CCOCC2)n1 [Compound 173, 4-[5-(2-aminoethyl)pyridin-2-yl]-3-(2-methyl-6-morpholin-4-ylpyridin-4-yl)oxybenzonitrile]",< 10 nM
16,"Cc1nc(Oc2cc(C#N)ccc2-c2ncc(CCN)cn2)cc(N2CC(F)(F)C2)n1 [compound 296, 4-[5-(2-aminoethyl)pyrimidin-2-yl]-3-[6-(3,3-difluoroazetidin-1-yl)-2-methylpyrimidin-4-yl]oxybenzonitrile]",< 10 nM
17,"Cc1cc(Oc2cc(C#N)ccc2-c2cc(CCN)ccn2)cc(N2CCOCC2)n1 [compound 638, 4-[4-(2-aminoethyl)pyridin-2-yl]-3-(2-methyl-6-morpholin-4-ylpyridin-4-yl)oxybenzonitrile]",10 to 1000 nM
18,"Cc1nc(Oc2cc(C#N)ccc2-c2ncc(CCN)cn2)cc(-c2ccccc2)n1 [Compound 275, 4-[5-(2-aminoethyl)pyrimidin-2-yl]-3-(2-methyl-6-phenylpyrimidin-4-yl)oxybenzonitrile]",< 10 nM
